In patent US7588906B2, “Hydrogels for biomolecule analysis and corresponding method to analyze biomolecules” (Wisconsin Alumni Research Foundation, priority 2004, dated 2009):
Where two headings read alike, the source gives them in different places. Ends that are not written are not given here.

Assays:
[1] = molecular target: T1, Bcr-Abl (K562 cell lysate) (Homo sapiens, UniProt P00519); assay: Array-based K562 cell lysate kinase assay on GST-Crkl substrates immobilized in polyacrylamide hydrogels, ECL phosphotyrosine detection; format: biochemical; conditions: for Inhibition of Bcr-Abl activity over the range studied / Inhibition of Bcr-Abl activity at 100 μM / Inhibition of Bcr-Abl activity at 1 mM: GST-Crkl (SH3), 2 h; for Inhibition of Bcr-Abl activity over the range studied: 100 nM to 1 mM inhibitor; for IC50: GST-Crkl (SH3) 165 ng/mm^2, 2 h, inhibitor 100 nM to 1 mM, read-out: IC50 for inhibition of Bcr-Abl activity, inhibitor screen; for Inhibition of Bcr-Abl activity at 100 μM: 100 μM inhibitor; for Inhibition of Bcr-Abl activity at 1 mM: 1 mM inhibitor
T1 construct: Source of Bcr-Abl tyrosine kinase: K562 cells (American Type Culture Collection, Manassas, Va.); endogenous in cells; host or cells: K562 cells (ATCC), clarified total cell lysate; the other entry of the earlier key: BCR (P11274, Breakpoint cluster region protein)
Method: Preparation of K562 and HL60 Cell Lysates: K562 and HL60 cells (ATCC, Manassas, Va.) were cultured at 37° C. and 5% CO2 in RPMI-1640 media (Cambrex Bio Science, Walkersville, Md.) containing 100 units/ml penicillin, 100 μg/ml streptomycin, and 10% FBS. For lysis, cells were resuspended at 5×10^7 cells/ml in lysis buffer (42.3 mM HEPES, 126 mM NaCl, 1.27 mM MgCl2, 0.85 mM EDTA, 84.5 mM NaF, 8.45 mM sodium pyrophosphate, 0.169 mM sodium orthovanadate, 1 mM PMSF, 0.95% Triton X-100, 9.5% glycerol, 4% 25× complete protease inhibitor, pH 7.4) and incubated on ice for 20 min. The total cell lysate was then clarified by spinning at 1500 rpm for 10 min. Total protein concentration was determined via a Pierce BCA protein assay kit (Pierce, Rockford, Ill.) and cell lysates were stored at −80° C. until further use.
Fabrication of Protein Arrays: Glass slides were acrylic-functionalized and GST-Crkl fusion proteins were acrylic-labeled as described in the previous Examples. Briefly, fusion proteins were labeled on primary amines by reaction with 6-((acrylo)amino) hexanoic acid, succinimidyl ester (Molecular Probes, Eugene, Oreg.) and clean glass slides were functionalized via reaction with (3-acryloxypropyl)-trimethoxysilane (Gelest, Tullytown, Pa.).
Following functionalization of the glass slides, a thin layer of 18.8% polyacrylamide gel was attached to the glass surface. Forty μl of a mixture containing 125 μl 1.5 M Tris, pH 8.8; 285 μl 33% acrylamide mix (0.86 g N,N′-methylenebisacrylamide (Bis) and 32.14 g acrylamide in a total volume of 100 ml); 5 μl 10% ammonium persulfate (APS); 75 μl 100% glycerol; 0.5 μl N,N,N′,N′-tetramethylethylenediamine (TEMED); and 9.5 μl water was sandwiched between an acrylic-functionalized glass slide and a clean glass plate and allowed to polymerize in a N2 environment at room temperature for 30 min. The glass plate was then removed and 1 μl protein spots were polymerized on top of the 18.8% acrylamide base layer from the following mixture: 6.25 μl 1.5 M Tris, pH 8.8; 3 μl 33% acrylamide mix; 0.5 μl 10% APS; 3.75 μl 100% glycerol; 0.1 μl TEMED; 0 to 7.5 μl acrylic-labeled GST-Crkl protein solution; and water to a total volume of 25 μl. Additionally, 3 μl spacer spots of the above mixture without protein were added on the exterior corners of the protein array for the subsequent creation of a reaction chamber as described below. After attachment of the protein-acrylamide copolymer spots the slides were washed by briefly dipping into approximately 250 ml of TBST (10 mM Tris-HCl, 100 mM NaCl, 0.1% Tween-20, pH 7.5) followed by a 15 minute and two 5 minute washes with slight agitation in approximately 20 ml of TBST. Slides were then washed by briefly dipping into approximately 250 ml of water followed by two 5 minute washes with slight agitation in approximately 20 ml of water, before being stored overnight at 4° C. in Abl kinase assay buffer (50 mM Tris-HCl, 10 mM MgCl2, 100 μM EDTA, 1 mM DTT, 0.015% Brij 35, 100 μg/ml BSA, pH 7.5).
Array-Based Kinase Assays: Just prior to the kinase assay, the glass slides were removed from the Abl kinase assay buffer and dried under a stream of compressed air. Careful attention was paid to make sure that only the bare portions of the slide were dried and the polyacrylamide spots and polyacrylamide base layer remained hydrated. Using the 3 μl spacer spots, a reaction chamber was then created by suspending a clean glass slide over top of the 1 μl protein-acrylamide copolymer hydrogel spots. […] Aliquots (250 μl) of these kinase reaction mixtures were then applied to each reaction chamber and the reactions allowed to proceed for 30 min to 5 h at 30° C. in a saturated environment. After the reaction, the glass slide used to create the reaction chamber was removed and the protein array was washed by briefly dipping into approximately 250 ml TBST followed by a 15 minute and two 5 minute washes with slight agitation in approximately 20 ml of TBST.

[2] = system: Chronic Myeloid Leukemia (CML); conditions: cited from earlier work
[3] = molecular target: T2, protein-tyrosine kinase p60c-src (Homo sapiens, UniProt P12931); assay: Solution kinase assay, phosphorylation of GST-[…]; format: biochemical; conditions: solution reaction, Lineweaver-Burk plot
T2 construct: purchased Calbiochem, San Diego, Calif
Method: Solution protein kinase assays with protein-tyrosine kinase p60^c-src (Calbiochem, San Diego, Calif.) were carried out according to the manufacture's instructions. Briefly, reaction mixtures containing 1.5 μl of 50% glycerol, 1.5 μl of ATP mix (0.15 mM ATP, 30 mM MgCl2), 0.3 units of p60^c-src in 1.5 μl kinase dilution buffer (50 mM HEPES, 0.1 mM EDTA, 0.015% Brij 35, 0.1 mg/ml BSA, 0.2% β-mercaptoethanol, pH 7.5), and 1 μl GST-[…] (SEQ. ID. NO: 1) solution (50 mM HEPES, 0.1 mM EDTA, 0.015% Brij 35, pH 7.5 containing anywhere from 0 to 600 ng of GST-[…]) were incubated at 37° C. for times ranging from 10 minutes to 5.5 hours. After each kinase reaction the samples were mixed with 94.5 μl of TBS (10 mM Tris-HCl, 100 mM NaCl, pH 7.5) containing 1% SDS and heated to 97° C. for 5 minutes. Upon cooling, the samples were transferred to a nitrocellulose membrane using a Dot Blot apparatus (Biorad, Hercules, Calif.) following the manufacture's instructions. Prior to assembly of the Dot Blot apparatus, the membrane was wetted in TBS for 10 minutes. The apparatus was then assembled and each well was washed twice with 100 μl of TBS. 50 μl of the kinase reaction product was applied to each well. After application of the reaction mixture the wells were washed twice with 200 μl of TBS containing 0.05% Tween-20. […]

[4] = molecular target: T2, protein-tyrosine kinase p60c-src; assay: Surface kinase assay, phosphorylation of hydrogel-immobilized GST-[…]; format: biochemical
Method: Surface protein kinase assays were carried out in a fashion similar to the solution kinase assays. Glass slides containing 0 to 600 ng of GST-[…] (SEQ. ID. NO: 1) per 1 μl polyacrylamide spot were prepared as above and stored overnight in kinase assay buffer (50 mM HEPES, 0.1 mM EDTA, 0.015% Brij 35, pH 7.5) at 4° C. Just prior to the kinase assay, these slides were dried under a stream of compressed air. […] The protein kinase reaction mixture containing 1.5 μl of 50% glycerol, 1.5 μl of ATP mix, and 0.3 units of p60^c-src in 1.5 μl of kinase dilution buffer was placed on top of each polyacrylamide spot and the slides were incubated in a humidity chamber at 37° C. for 10 minutes to 5.5 hours.
In the case of phosphotyrosine detection, a similar procedure was followed with the substitution of TBST for PBST as the buffer and BSA for milk as the blocking agent. These substitutions were required to reduce the nonspecific binding of the secondary antibody used in this detection scheme. […] The slides were then stored in TBST until detection.
In the case of the nitrocellulose membranes, 20 ml of ECL detection reagent was used per membrane.

[5] = molecular target: T3, v-Abl tyrosine kinase (Abelson murine leukemia virus, UniProt P00521); assay: v-Abl phosphorylation of hydrogel-immobilized Abl peptide, MALDI mass spectrometry detection; format: biochemical; conditions: 3 hours, 30° C., estimated from MALDI spectrum FIG. 24B
T3 sequence (P00521 1-746): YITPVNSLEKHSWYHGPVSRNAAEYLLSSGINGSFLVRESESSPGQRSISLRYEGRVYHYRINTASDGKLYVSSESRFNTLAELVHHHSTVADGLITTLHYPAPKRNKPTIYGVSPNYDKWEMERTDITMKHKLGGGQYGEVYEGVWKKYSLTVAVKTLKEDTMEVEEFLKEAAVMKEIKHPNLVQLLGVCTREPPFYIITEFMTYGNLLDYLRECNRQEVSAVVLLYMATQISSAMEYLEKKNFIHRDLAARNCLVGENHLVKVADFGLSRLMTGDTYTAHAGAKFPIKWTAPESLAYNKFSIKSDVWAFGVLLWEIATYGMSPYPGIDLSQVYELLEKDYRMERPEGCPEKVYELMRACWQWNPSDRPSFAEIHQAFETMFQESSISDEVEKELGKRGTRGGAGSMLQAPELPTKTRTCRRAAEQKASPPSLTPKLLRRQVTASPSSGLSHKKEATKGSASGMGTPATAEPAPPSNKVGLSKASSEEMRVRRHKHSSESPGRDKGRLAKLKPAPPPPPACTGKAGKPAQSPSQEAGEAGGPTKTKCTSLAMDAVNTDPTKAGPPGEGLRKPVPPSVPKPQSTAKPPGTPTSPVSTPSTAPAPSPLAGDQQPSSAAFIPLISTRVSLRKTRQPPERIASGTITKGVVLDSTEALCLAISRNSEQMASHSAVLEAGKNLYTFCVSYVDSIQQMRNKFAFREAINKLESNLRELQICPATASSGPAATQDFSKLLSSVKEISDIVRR
Source text: The acrylic-labeled peptides were then incorporated into peptide-acrylamide copolymer hydrogels as described in the previous examples. Briefly recapping, individual peptide acrylamide copolymer hydrogel spots were attached to stainless steal MALDI target plates (16) (Applied Biosystems, Foster, Calif.) and acrylic-functionalized glass slides.
The peptide-acrylamide copolymer hydrogels were then subjected to enzyme-mediated phosphorylation reactions. Substrates containing peptide-acrylamide copolymer hydrogels were washed by sonication in approximately 20 ml of H2O for 10 mm and dried under compressed air. The substrates were then reconstituted in a v-Abl reaction mixture and incubated at 30° C. in a saturated environment for 3 hours. […] Following the phosphorylation reaction, the solid substrates were sonicated twice in approximately 20 ml of H2O for 10 mm and dried under compressed air.
After the phosphorylation reactions, the copolymer hydrogels were subjected to MALDI mass spectrometry analysis. Stainless steel MALDI target plates and glass slides containing peptide-acrylamide copolymer hydrogels were analyzed on an ABI Voyager 4700 MALDI-TOF/TOF mass spectrometer (Applied Biosystems). […] The samples were then analyzed in linear positive, linear negative, reflector positive, and reflector negative modes to detect the phosphorylated samples.

T1 sequence (P00519 with tags, fused parts or gaps): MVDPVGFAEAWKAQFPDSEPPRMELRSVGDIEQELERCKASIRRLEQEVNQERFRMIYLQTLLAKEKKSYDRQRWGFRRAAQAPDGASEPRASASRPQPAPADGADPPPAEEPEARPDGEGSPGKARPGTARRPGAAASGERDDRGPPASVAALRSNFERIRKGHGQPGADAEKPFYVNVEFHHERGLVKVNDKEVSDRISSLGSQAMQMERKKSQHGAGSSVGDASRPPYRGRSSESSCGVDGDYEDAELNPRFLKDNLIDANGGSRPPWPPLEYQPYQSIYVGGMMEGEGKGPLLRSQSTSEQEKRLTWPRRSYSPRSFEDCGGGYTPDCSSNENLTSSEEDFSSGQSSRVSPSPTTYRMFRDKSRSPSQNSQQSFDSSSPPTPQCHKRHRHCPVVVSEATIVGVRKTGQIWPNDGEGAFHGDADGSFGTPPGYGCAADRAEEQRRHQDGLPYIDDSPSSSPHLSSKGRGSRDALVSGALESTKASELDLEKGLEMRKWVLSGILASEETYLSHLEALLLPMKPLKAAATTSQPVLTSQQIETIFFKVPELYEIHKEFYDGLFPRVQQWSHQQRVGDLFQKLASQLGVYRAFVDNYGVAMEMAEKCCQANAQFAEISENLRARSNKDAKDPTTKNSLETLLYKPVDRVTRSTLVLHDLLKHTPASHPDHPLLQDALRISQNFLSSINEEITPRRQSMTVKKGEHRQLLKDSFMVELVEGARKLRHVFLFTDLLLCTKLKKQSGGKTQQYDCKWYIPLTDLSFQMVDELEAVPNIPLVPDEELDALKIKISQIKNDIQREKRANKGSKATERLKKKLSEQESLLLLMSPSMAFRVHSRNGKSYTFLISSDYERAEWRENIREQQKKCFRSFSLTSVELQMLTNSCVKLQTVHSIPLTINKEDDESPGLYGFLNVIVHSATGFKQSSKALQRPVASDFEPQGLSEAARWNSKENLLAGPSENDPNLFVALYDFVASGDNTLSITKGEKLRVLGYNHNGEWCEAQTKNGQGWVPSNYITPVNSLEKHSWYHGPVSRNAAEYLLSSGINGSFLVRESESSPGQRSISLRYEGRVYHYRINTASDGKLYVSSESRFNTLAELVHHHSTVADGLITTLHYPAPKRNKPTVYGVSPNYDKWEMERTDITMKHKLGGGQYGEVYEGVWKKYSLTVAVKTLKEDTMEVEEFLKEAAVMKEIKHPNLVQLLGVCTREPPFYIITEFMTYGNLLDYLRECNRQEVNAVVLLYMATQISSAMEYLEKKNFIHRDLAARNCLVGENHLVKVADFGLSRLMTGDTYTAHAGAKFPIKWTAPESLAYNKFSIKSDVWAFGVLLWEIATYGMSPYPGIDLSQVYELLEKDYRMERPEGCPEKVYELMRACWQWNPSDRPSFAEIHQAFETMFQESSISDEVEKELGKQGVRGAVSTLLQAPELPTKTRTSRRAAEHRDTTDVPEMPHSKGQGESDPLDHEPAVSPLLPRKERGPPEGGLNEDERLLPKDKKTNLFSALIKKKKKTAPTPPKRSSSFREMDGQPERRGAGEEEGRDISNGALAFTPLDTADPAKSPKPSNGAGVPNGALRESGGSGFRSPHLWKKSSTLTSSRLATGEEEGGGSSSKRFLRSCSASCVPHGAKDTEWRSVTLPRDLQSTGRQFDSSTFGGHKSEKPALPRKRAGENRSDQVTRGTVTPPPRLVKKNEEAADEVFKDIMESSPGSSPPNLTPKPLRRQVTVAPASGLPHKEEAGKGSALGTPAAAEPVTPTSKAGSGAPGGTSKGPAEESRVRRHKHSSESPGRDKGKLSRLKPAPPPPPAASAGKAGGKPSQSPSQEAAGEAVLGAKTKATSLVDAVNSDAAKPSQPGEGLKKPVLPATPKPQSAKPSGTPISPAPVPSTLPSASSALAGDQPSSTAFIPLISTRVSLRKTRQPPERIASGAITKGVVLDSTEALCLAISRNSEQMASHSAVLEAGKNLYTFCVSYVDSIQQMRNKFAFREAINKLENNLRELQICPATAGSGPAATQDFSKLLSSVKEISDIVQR

With `N#C/C(=C/c1ccc(O)c(O)c1)C(=O)NCc1ccccc1` [AG490] the “Inhibition of Bcr-Abl activity over the range studied” value [1] was “do not inhibit”.
For `COc1cc2ncc(-c3ccccc3)nc2cc1OC` [AG1296], the “Inhibition of Bcr-Abl activity over the range studied” value [1] was “do not inhibit”.
In the case of `COc1cc2ncnc(Nc3cccc(Cl)c3)c2cc1OC` [AG1478], the IC50 [1] is reported as roughly 100 µM, the “Inhibition of Bcr-Abl activity at 100 μM” value [1] is reported as “Significant inhibition” and the “Inhibition of Bcr-Abl activity at 100 μM” value ([1]; listed as AG 1478) is reported as “slight inhibition”. For the same compound, the “Inhibition of Bcr-Abl activity at 1 mM” value [1] was “Significant inhibition”.
In the case of `Cc1ccc(NC(=O)c2ccc(CN3CCN(C)CC3)cc2)cc1Nc1nccc(-c2cccnc2)n1` [Glivec], the Complete cytogenetic remission ([2]; CML patients) is listed as 41 % of patients and the Side effects ([2]; CML patients) is listed as “much milder side effects”.
For `C[C@@H](Nc1ncnc2[nH]c(-c3ccc(O)cc3)cc12)c1ccccc1` [PKI166], the IC50 [1] was roughly 100 µM, the “Inhibition of Bcr-Abl activity at 100 μM” value [1] was “Significant inhibition” and the “Inhibition of Bcr-Abl activity at 100 μM” value ([1]; listed as PKI 166) was “slight inhibition”. The “Inhibition of Bcr-Abl activity at 1 mM” value [1] was “Significant inhibition”.
In the case of “GST-EEEIYGEFE: GST-peptide fusion (SEQ. ID. NO: 1) carrying the consensus sequence for c-Src tyrosine phosphorylation ({GST}-EEEIYGEFE)”, the “Vmax, phosphorylation by c-Src in solution” value [3] is reported as 8.1±3.1 arbitrary units, the Km ([3]; read-out: Km, phosphorylation by c-Src in solution) is reported as 2.7 ± 1 µM and the “Vmax, phosphorylation by c-Src of surface-immobilized substrate” value ([4]; surface reaction, polyacrylamide hydrogel spot, Lineweaver-Burk plot) is reported as 9.7±0.63 arbitrary units. The Km ([4]; surface reaction, polyacrylamide hydrogel spot, Lineweaver-Burk plot, read-out: Km, phosphorylation by c-Src of surface-immobilized substrate) was 0.36 ± 0.033 µM and the “Km of surface reaction lower than in solution” value ([4]; surface vs. solution) was “approximately 10 fold”.
With H-EAIYAAPFAKKK-OH [Abl peptide] the Extent of phosphorylation [5] was “approximately 90%”.
For α-interferon, the “Survival as compared to conventional chemotherapy” value ([2]; CML patients) is listed as “prolong survival by about a year” and the Side effects ([2]; human, in vivo) is listed as “significant side effects”.
